Where “and” joins values, the source holds several entries; their conditions need not be identical. Identical values can stand only once.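 Growth conditions: 96-well plates. Treatment: test compound, 48 hours, 5 concentrations. Analysis: linear interpolation between bracketing concentrations; unreached endpoints set to highest concentration. Here, GI50 denotes the concentration required for 50% inhibition of growth. At the TGI there is no net growth.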 Where only a bound is given, the exact number is not on record here.

What all share (assay): NCI tumour cell line growth inhibition, 48 h
The test system of test [1] is SK-MEL-28 melanoma.
Test [2] has as its system KM12 colon.
Test [3] has as its system HOP-92 NSCLC.
Test [4] deals with BT-549 breast.
The test system of test [5] is NCI-H522 lung.
In test [6] the test system is HS 578T breast.
The subject of test [7] is RXF 393 renal.
Test [8] concerns SF-539 CNS.
Test [9] concerns MOLT-4 leukemia.
Test [10] has as its system HCC-2998 colon.

Regarding `COc1ccc2c(c1OC)-c1c(c3ccc([N+](=O)[O-])cc3c(=O)n1CCCN=[N+]=[N-])C2=O`, the GI50 in test [1] is > 100 µM; in [2], > 100 µM; in test [3], 20.3 µM; in test [4], > 100 µM; in test [5] it was 3 µM; in [6] it was > 100 µM. Besides, the GI50 in [7] is 10.1 µM; in test [8] it was 5.23 µM; in [9], 3.12 µM; in [10], 79.9 µM. For the same compound, the TGI in test [1] was > 100 µM; in [2], > 100 µM; in test [3], > 100 µM; in test [4] it was > 100 µM; in test [5], 51.7 µM; in test [6] it was > 100 µM. In addition, the TGI in [7] was > 100 µM; in test [8], 40.3 µM; in [9] it was > 100 µM; in [10] it was > 100 µM.

Consider `CCOC(=O)N1C/C(=C/c2ccc(OC)cc2)C(=O)/C(=C/c2ccc(OC)cc2)C1`, for which the GI50 in [1] is 2.72 µM; in [2] it was 0.946 µM; in test [3], 4.97 µM; in test [4] it was 2.01 µM; in [5], 2.91 µM; in [6], 2.85 µM. Besides, the GI50 in test [7] was 1.56 µM; in test [8], 1.81 µM; in test [9], 3.99 µM; in test [10] it was 1.81 µM. The TGI was 7.84 µM in [1]; 2.5 µM in test [2]; > 56.3 µM in test [3]; 4.47 µM in [4]; 11.1 µM in test [5]; > 100 µM in test [6]. The TGI is 3.09 µM in test [7], 3.7 µM in test [8], > 100 µM in test [9] and 3.38 µM in [10].

With `C[C@@]1(c2ncncc2F)NC(=O)c2cc(-c3cn[nH]c3)ccc21`, the GI50 was 11.7 µM in [1]; 29.6 µM in test [2]; 22.6 µM in [3]; 11.8 µM in test [4]; 13.1 µM in test [5]; 23 µM in [6]. In addition, the GI50 was 15.2 µM in test [7], 5.61 µM in test [8], 26.5 µM in [9] and 22.9 µM in test [10]. Further, the TGI in [1] is 73.4 µM; in test [2], > 100 µM; in test [3] it was 88.5 µM; in test [4] it was 49.3 µM; in [5] it was > 100 µM; in test [6], > 100 µM. The TGI was 37.3 µM in [7], 32.7 µM in test [8], > 100 µM in test [9] and > 100 µM in test [10].

Regarding `CCCCCC(=O)OCC(=O)O[C@@H]1C[C@]2(C(C)C)O[C@@]1(C)[C@@H]1CC[C@@H](C)[C@H]1[C@@H]2OC(=O)/C=C/c1ccccc1`, the GI50 was > 56.6 µM in test [1]; > 78.5 µM in [2]; 12.8 µM in test [3]; 0.0923 µM in [4]; 38.2 µM in test [5]; 0.127 µM in test [7]. The GI50 was > 51.3 µM in [8], > 45.5 µM in test [9] and > 62.3 µM in [10]. Further, the TGI in test [1] was > 83 µM; in test [2] it was > 100 µM; in test [3], > 74.5 µM; in [4], 14.4 µM; in test [5], > 76.5 µM; in [6], 0.0315 µM. Moreover, the TGI in test [7] was > 6.51 µM; in test [8], > 76.2 µM; in test [9], > 100 µM; in [10] it was > 100 µM.

In the case of `O=C(c1ccco1)c1c(C(F)(F)F)nc2cc(C(F)(F)F)ccc2[n+]1[O-]`, the GI50 is > 100 µM in [1]; > 100 µM in test [2]; 16.5 µM in test [3]; 57.8 µM in [4]; 65.8 µM in [5]; 26.7 µM in [6]. The GI50 in test [7] was 20.3 µM; in [8], 21.2 µM; in test [9], > 100 µM; in [10] it was > 100 µM. In addition, the TGI in test [1] was > 100 µM; in [2], > 100 µM; in [3], 68.8 µM; in test [4] it was > 100 µM; in [5], > 100 µM; in test [6] it was 74.9 µM. For the same compound, the TGI is 80 µM in [7], 54.2 µM in test [8], > 100 µM in [9] and > 100 µM in [10].

Consider `O=C1C=CN(C2OC(CO)C(O)C2O)C(=O)C1` (stereo not drawn), for which the GI50 in [1] is > 625 µM and 252 µM; in test [2] it was 22.3 µM and 39.6 µM; in [3], 13.6 µM and 66.2 µM; in [5] it was > 625 µM and 518 µM; in [7], 514 µM; in test [8], 146 µM. For the same compound, the TGI in test [1] is > 2500 µM; in [2], 625 µM and > 2500 µM; in [4], > 2500 µM; in test [5], > 2320 µM; in test [6], > 747 µM; in test [7], 625 µM and > 2500 µM. In addition, the TGI in [8] was 625 µM and 1800 µM; in [9], 476 µM; in [10], 625 µM and > 2500 µM.

For the compound `O=C(Nc1cccc2cccnc12)c1ccc(N2C(=O)[C@@H]3[C@H](C2=O)[C@@H]2C=C[C@H]3C2)cc1`, the GI50 in [1] is 35.2 µM; in [2], 30.9 µM; in test [3], 15.5 µM; in test [4], 16.3 µM; in test [5] it was 18.4 µM; in test [6], 40.8 µM. Moreover, the GI50 in test [7] was 30.8 µM; in test [8], 77.8 µM; in [9], 22.1 µM; in test [10] it was 35.4 µM. In addition, the TGI in [1] is > 100 µM; in test [2] it was > 100 µM; in test [3], > 94.3 µM; in [4] it was > 83.3 µM; in test [5], 54.4 µM; in [6] it was > 100 µM. Besides, the TGI in [7] is > 100 µM; in test [8], > 100 µM; in test [9] it was > 66.6 µM; in test [10], > 100 µM.

In the case of `COc1cc(C2CC(c3ccc4c(c3)OCO4)=NN2C(C)=O)cc(OC)c1OC` (stereo not drawn), the GI50 is 4.97 µM in test [1]; 0.422 µM in test [2]; > 100 µM in test [3]; 6.82 µM in test [4]; 0.382 µM in [5]; 1.26 µM in [6]. In addition, the GI50 in test [7] is 1.56 µM; in test [8], 0.592 µM; in test [9] it was 1.05 µM; in test [10], 2.36 µM. In addition, the TGI in [1] is > 100 µM; in test [2], 52.9 µM; in test [3], > 100 µM; in test [4], > 100 µM; in test [6], > 74.1 µM; in [7], > 23.2 µM. Further, the TGI in test [8] was 7.29 µM; in [9], > 50.5 µM; in test [10] it was 60 µM.

For `CCCC[P+](c1ccccc1)(c1ccccc1)c1ccccc1`, the GI50 in test [1] was 28.1 µM; in test [2], 0.944 µM; in [3] it was 0.675 µM; in test [4], 3.32 µM; in test [5] it was 1.22 µM; in test [6], 3.38 µM. For the same compound, the GI50 was 18.5 µM in test [7], 7.09 µM in test [8], 5.72 µM in test [9] and 1.42 µM in [10]. Moreover, the TGI in test [1] is > 100 µM; in [2], 66.3 µM; in test [3], 6.58 µM; in [4], 74.7 µM; in test [5], 6.85 µM; in test [6] it was 20.7 µM. The TGI in test [7], in [8], in [9] and in test [10] was > 100 µM in each case.

With `O=C(Nc1cccc(C(F)(F)F)c1)c1cccc(NC2=C(Cl)C(=O)N(Cc3ccccc3)C2=O)c1`, the GI50 in test [1] is 45.1 µM; in test [2], 44.8 µM; in [3] it was 2.89 µM; in test [4], 18.8 µM; in test [5], 4.88 µM; in [6], 43.8 µM. Also, the GI50 was 2.39 µM in [7], 26 µM in [8], 2.73 µM in test [9] and 16.8 µM in [10]. For the same compound, the TGI in [1] is > 100 µM; in test [2], > 100 µM; in [3], 32.7 µM; in test [4], 64.2 µM; in test [5], 23.5 µM; in test [6] it was > 100 µM. In addition, the TGI is 9.29 µM in test [7], 62.7 µM in [8], > 100 µM in test [9] and 32.7 µM in [10].

For `C#CCOc1ccc2ncnc(Nc3ccc(NC(=O)CCl)cc3)c2c1`, the GI50 in [1] was 14.5 µM; in [2] it was 8.54 µM; in [3] it was 12.2 µM; in test [4], 3.81 µM; in [5], 2 µM; in test [6] it was 5.61 µM. The GI50 in test [7] is 4.64 µM; in [8], 2.89 µM; in test [9], 3.19 µM; in test [10], 13.7 µM. Besides, the TGI in test [1] was 79.6 µM; in test [2] it was 23.7 µM; in test [3], 27.9 µM; in [4] it was 16.6 µM; in test [5], 4.27 µM; in [6], 61.7 µM. The TGI in test [7] was 17.9 µM; in [8] it was 10.6 µM; in [9], 17.7 µM; in test [10] it was 27.1 µM.

(Values after PubChem BioAssay (NCI).)
